Article PMC6154579, “Anti-Melanogenic Properties of Greek Plants. A Novel Depigmenting Agent from Morus alba Wood” (Molecules : A Journal of Synthetic Chemistry and Natural …, 2017)
Several values for one entry are separate records, joined by “and”; a condition that tells them apart may be missing. Equal entries are not always repeated. Entries after “also recorded” stand apart in the source; their conditions may differ. Where two headings read alike, the source gives them in different places.

How the values were obtained:
[1] = target: T1, mushroom tyrosinase (Agaricus bisporus, UniProt C7FF04); assay: Tyrosinase inhibition assay (oxidation of L-DOPA, diphenolase activity); assay type: biochemical; settings: for inhibition at 60 µM: read-out: Tyrosinase Inhibition % ± STD (60 μM); for inhibition at 300 µM: read-out: Tyrosinase Inhibition % ± STD (300 μM); for fold more potent tyrosinase inhibition than kojic acid: ratio of IC50 values vs reference kojic acid;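 for all read-outs here: dopachrome formation from L-DOPA by mushroom tyrosinase in phosphate buffer, compound preincubated with enzyme 10 min at 25 °C, inhibition versus sample-free control, enzyme-free blanks subtracted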
T1 construct: purchased Sigma-Aldrich

[2] = tested on: zebrafish embryos; assay: In vivo inhibition of melanogenesis assay; settings: embryos treated 24 to 48 hpf, ranking: most potent, followed by, weakest, Figure 5: MAM 70, F33 70, F38-42 10, F43 10, 1/5/6/7 50, 2 7, 11 10 μg/mL
[3] = tested on: B16F10 cells; assay: MTT cytotoxicity assay; assay type: cell-based, Mouse; settings: high concentrations
Protocol: Mouse skin melanoma (B16F10) cells were obtained from the American Tissue Culture Collection (Manassas, VA, USA) and were maintained in Dulbecco's modified Eagle’s medium (Gibco, Thermo Fischer Scientific, Waltham, MA, USA), supplemented with 10% (v/v) fetal bovine serum (Gibco, Thermo Fischer Scientific) and 2 mM glutamine (Gibco, Thermo Fischer Scientific) in a humidified incubator at 5% CO2 and 37 °C.
MTT cytotoxicity assay was performed as described previously. Briefly, B16F10 cells were cultured at 96-wellmicroplates (5000 cells/well). After 24 h the cells were treated with different concentrations of the extracts (in control cells an appropriate amount of DMSO was added). The MTT solution (MTT, Sigma-Aldrich) (1 mg/mL in serum free, phenol red free medium) was added 48 h after the addition of test extracts. After 4 h, the MTT solution was discarded and isopropanol was added to dissolve the formazan crystals. Absorbance was recorded at 570 nm using a microplate reader (EZ Read 400 ELISA microplate reader, Biochrom, Cambridge, UK). Survival of non-treated cells was set to 100%.

[4] = compound at 60 μM, two independent experiments
[5] = compound at 300 μM, two independent experiments
[6] = diphenolase activity, three independent experiments, read-out: Tyrosinase Inhibition IC50 ± STD

T1 sequence (C7FF04 1-392 limits assumed): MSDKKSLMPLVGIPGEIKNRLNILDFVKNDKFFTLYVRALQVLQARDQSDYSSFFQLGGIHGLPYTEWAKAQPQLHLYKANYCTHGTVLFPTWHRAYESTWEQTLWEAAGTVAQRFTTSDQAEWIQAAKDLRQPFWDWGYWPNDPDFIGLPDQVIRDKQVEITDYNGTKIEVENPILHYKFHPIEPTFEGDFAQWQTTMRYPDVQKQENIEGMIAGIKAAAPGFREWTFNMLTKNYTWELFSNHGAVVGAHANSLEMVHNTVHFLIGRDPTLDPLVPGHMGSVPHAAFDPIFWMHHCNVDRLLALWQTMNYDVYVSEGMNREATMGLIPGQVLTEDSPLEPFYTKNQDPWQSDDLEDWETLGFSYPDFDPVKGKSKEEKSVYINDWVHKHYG

SMILES | IC50 [1] [µM] | inhibition at 60 µM [1, 4] [%] | inhibition at 300 µM [1, 5] [%] | melanogenesis inhibition on zebrafish embryos (in words) [2] | other results
OC[C@H]1O[C@@H](Oc2cc(O)cc(/C=C/c3ccc(O[C@@H]4O[C@H](CO)[C@@H](O)[C@H](O)[C@H]4O)cc3O)c2)[C@H](O)[C@@H](O)[C@@H]1O [Mulberroside A (3), mulberroside A] | > 100 | 43.1 ± 0.7 | 58.3 ± 1.4 | – | –
Oc1cc(O)cc(/C=C/c2ccc(O)cc2O)c1 [Oxyresveratrol (1), oxyresveratrol] | – | – | – | significantly suppress in vivo melanogenesis; also recorded: most potent | –
O=C1c2c(O)cc(O)cc2OC(c2ccc(O)cc2O)C1O (stereo not drawn) [trans-Dihydromorin (6), trans-dihydromorin] | – | 73.1 ± 0.6 | 94.3 ± 0.1 | significantly suppress in vivo melanogenesis; also recorded: most potent | IC50 [1, 6]: 9.4 ± 1.3 µM
CC(C)=CCc1c(O)ccc(C(=O)C2C(c3c(O)cc(O)c4c(=O)c(CC=C(C)C)c(-c5ccc(O)cc5O)oc34)C=C(C)CC2c2ccc(O)cc2O)c1O (stereo not drawn) [Kuwanon H (8), kuwanon H] | > 100 | 46 ± 2.9 | 49 ± 2.6 | – | –
CC(C)=CCc1c(-c2ccc(O)cc2O)oc2c(CC=C(C)C)c(O)cc(O)c2c1=O [Kuwanon C (2), kuwanon C] | 76.2 ± 1.1 | 46.5 ± 1.3 | 75.6 ± 1.2 | weakest inhibitor of melanogenesis | –
CC(C)=CCc1c(-c2ccc(O)cc2O)oc2c3c(cc(O)c2c1=O)OC(C)(C)C=C3 [Morusin (10), morusin] | > 100 | 31 ± 3.2 | 49.9 ± 2.2 | – | –
O=Cc1ccc(O)cc1O [2,4-Dihydroxybenzaldehyde (9), 2,4-dihydroxybenzaldehyde] | – | – | 4.9 ± 0.3 | – | –
Oc1cccc(O)c1 [Resorcinol (4), resorcinol] | 163 ± 18.2 | 38 ± 1.1 | 60.4 ± 1 | – | –
Oc1cccc(CCc2ccc(O)cc2O)c1 [2,4,3′-Trihydroxydihydrostilbene (7), 2,4,3′-Trihydroxydihydrostilbene] | – | 96.3 ± 0.5 | 97.8 ± 0.1 | significantly suppress in vivo melanogenesis; also recorded: most potent; also recorded: significantly suppressed in vivo melanogenesis | IC50 [1, 6]: 0.8 ± 0.15 µM; fold more potent tyrosinase inhibition than kojic acid [1]: ~ 20 fold and 20 fold; cytotoxicity in cells (in words) [3]: non-cytotoxic in high concentrations
CC(C)=CCc1c(-c2ccc(O)cc2O)oc2c(C3C=C(C)CC(c4ccc(O)cc4O)C3C(=O)c3ccc(O)cc3O)c(O)cc(O)c2c1=O (stereo not drawn) [Kuwanon G (12), kuwanon G] | 27.5 ± 1.2 | – | – | – | inhibition at 60 µM [1]: 59.1 ± 1.4%; inhibition at 300 µM [1]: 77.8 ± 2.8%
Oc1cc(O)cc(CCc2ccc(O)cc2O)c1 [Dihydrooxyresveratrol (5), Dihydrooxyresveratrol] | 0.3 ± 0.05 | – | – | – | fold more potent tyrosinase inhibition than kojic acid [1]: ~ 50 fold; inhibition at 60 µM [1]: 97.6 ± 0.2%; inhibition at 300 µM [1]: 98.2 ± 0.5%; melanogenesis inhibition on zebrafish embryos (in words) ([2]; listed as dihydrooxyresveratrol): only partially inhibited the melanogenesis
Oc1cc(O)cc(-c2cc3ccc(O)cc3o2)c1 [Moracin M (11), moracin M] | 8 ± 0.6 | 61.3 ± 1.2 | 87.2 ± 0.5 | – | –
